Where two headings read alike, the source gives them in different places.
Tests used:
Format in all cases: cell-based, human
[1] = system: non-senescent control IMR90 ER:RAS cells; assay: Nuclei count (Hoechst, high content imaging) senolytic assay, OIS model, non-senescent control cells; details: Homo sapiens
From the text: (§1) To test for senolytic activity, we compared the effect of each compound on the total cell number (automated high content image-based analysis of total number of nuclei per well) in non-senescent and senescent IMR90 ER:RAS cultures treated with the top hits from the computational screen (Figs. 2e and 3a–d and Supplementary Fig. 4a–c). The drop in cell number compared to untreated controls is indicated by the nuclei count and reflects cell death[13],[15]. As positive control, we employed ouabain, a cardiac glycoside with well characterised senolytic activity.
(§2) We performed experimental validation of the compounds with z-score > 8 (Fig. 2e). […] We employed two cellular models of senescence: one of OIS and a second one of TIS. For the OIS case, we utilised IMR90 ER:RAS cells with 4-OHT at 100 nM. […] For the TIS model, we used A549 cells with etoposide at 100 μM. The exposure of the cells to etoposide lasted 48 h, after which period the cells were cultivated for a further three days with normal media.
(§3) IMR90 (CCL-186) human foetal lung fibroblasts and A549 (CCL-185) human lung adenocarcinoma cells were obtained from the American Type Culture Collection (ATCC, Manassas, VA). The cell lines were confirmed to be mycoplasma negative (Lonza MycoAlert, cat #LT07-118). IMR90 ER:RAS is a derivative of IMR90 cells expressing a switchable version of oncogenic H-Ras[84]. IMR90 ER:RAS and A549 cells were maintained in Dulbecco’s Modified Eagle Medium (DMEM, ThermoFisher) supplemented with foetal bovine serum (10%), L-glutamine (2 mM, ThermoFisher), and antibiotic-antimycotic solution (1%, ThermoFisher) and incubated under standard tissue culture conditions (37 °C and 5% CO2). For induction of the senescent phenotype, IMR90-ER:RAS cells were cultured in hydroxytamoxifen (4-OHT) (Sigma) added media at 100 nM final concentration. IMR90 were kept in culture for over 27 passages for replicative senescence. Cells were tested for mycoplasma on a regular basis.
(§4) Cells were seeded (50 μL per well) into 384-well plates (IMR90 ER:RAS cells in Nunc Optical Bottom Polybase Microplates [#142761, Thermo Scientific, Rochester, NY] and A549 cells in CELLSTAR Cell Culture Microplates [#781091, Greiner Bio-One, Kremsmünster, Austria]). Cells were incubated under standard tissue culture conditions for 24 h before the addition of compounds. Passage 14 IMR90 ER:RAS cells were seeded at 1300 cells per well in the control condition, and at 1600 cells per well in the senescent case. Passage 34 A549 cells were seeded at 7000 cells per well in the control condition, and at 10,000 cells per well in the senescent case.
(§5) Dose response plates were prepared with a DMSO control and a 10-point […] concentration range, and added to the compounds using a D300e digital dispenser (Tecan Trading AG, Switzerland) at a final concentration of between 10 μM and 10 nM. Every screened condition was carried out in triplicate. After 72 h of incubation with exposure to the compounds, cells were fixed by the addition of an equal volume of formaldehyde (8%, 50 μL; #BP531-500, Fisher Bioreagents, Fisher Scientific, Loughborough, Leicestershire) to the existing media, incubated at room temperature (30 min), and washed three times in phosphate-buffered saline (PBS). Cells were then permeabilised in Triton-X100 (0.1%, 50 μL) and incubated at room temperature (30 min) followed by three more washes with PBS.
(§6) Cells were stained with Hoechst 33342 for nuclei count (excitation/emission wavelength at 387/447 […], DAPI channel, original concentration at 10 mg/ml, final concentration at 2 μg/ml; H1399, Molecular Probes, Eugene, OR). The staining solution was prepared in bovine serum albumin solution (10%). The staining solution was added to each well (30 μL) and incubated in the dark at room temperature (30 min), followed by three washes with PBS and no final aspiration. Plates were foil sealed.

[2] = system: senescent A549 cells (etoposide-induced); assay: Nuclei count senolytic assay, therapy-induced senescence (TIS) model, senescent cells; details: Homo sapiens, A549, Senescent cells, mean, read-out: Mean % Cell Survival
Method: We performed a second validation of the effectiveness of our machine learning models using a different stressor. We focused on therapy-induced senescence (TIS, Supplementary Fig. 6a), where human epithelial cancerous cells (A549) were induced to become senescent by addition of etoposide. Cells were treated with 100 μM etoposide for 48 h, followed by another three days of exposure to media in standard conditions.
as §2, §3, §4, §5, §6
Plates were imaged on an ImageXpress micro XLS (Molecular Devices, Eugene, OR) equipped with a robotic plate loader (Scara4, PAA, UK).

[3] = system: senescent IMR90 ER:RAS cells (4-OHT-induced); assay: Nuclei count (Hoechst, high content imaging) senolytic assay, oncogene-induced senescence (OIS) model, senescent cells; details: Homo sapiens
From the text: as §1, §2, §3, §4, §5, §6

## COC[C@H]1C[C@@H](c2nc(-c3ccc4c(c3)COc3cc5c(ccc6nc([C@@H]7CC[C@H](C)N7C(=O)[C@@H](NC(=O)OC)C(C)C)[nH]c65)cc3-4)c[nH]2)N(C(=O)[C@H](NC(=O)OC)c2ccccc2)C1 [Velpatasvir, velpatasvir, reference compound]
[1]; IMR-90, 72 h, Control, log (dose) [M] -5, 72 h, mean n=3 (Fig 3C), read-out: Mean % Cell Survival
  viability at 10 µM: 119%
[1]; IMR-90, 72 h, Control, log (dose) [M] -5.33, 72 h, mean n=3 (Fig 3C), read-out: Mean % Cell Survival
  viability at 4.677 µM: 116%
[1]; IMR-90, 72 h, Control, log (dose) [M] -5.66, 72 h, mean n=3 (Fig 3C), read-out: Mean % Cell Survival
  viability at 2.188 µM: 113%
[1]; IMR-90, 72 h, Control, log (dose) [M] -6, 72 h, mean n=3 (Fig 3C), read-out: Mean % Cell Survival
  viability at 1 µM: 115%
[1]; IMR-90, 72 h, Control, log (dose) [M] -6.33, 72 h, mean n=3 (Fig 3C), read-out: Mean % Cell Survival
  viability at 0.4677 µM: 86.1%
[1]; IMR-90, 72 h, Control, log (dose) [M] -6.66, 72 h, mean n=3 (Fig 3C), read-out: Mean % Cell Survival
  viability at 0.2188 µM: 99.9%
[1]; IMR-90, 72 h, Control, log (dose) [M] -7, 72 h, mean n=3 (Fig 3C), read-out: Mean % Cell Survival
  viability at 0.1 µM: 98.3%
[1]; IMR-90, 72 h, Control, log (dose) [M] -7.33, 72 h, mean n=3 (Fig 3C), read-out: Mean % Cell Survival
  viability at 0.04677 µM: 106%
[1]; IMR-90, 72 h, Control, log (dose) [M] -7.66, 72 h, mean n=3 (Fig 3C), read-out: Mean % Cell Survival
  viability at 0.02188 µM: 110%
[1]; IMR-90, 72 h, Control, log (dose) [M] -8, 72 h, mean n=3 (Fig 3C), read-out: Mean % Cell Survival
  viability at 0.01 µM: 96.2%
[1]; IMR-90, Control cells, log (dose) [M] -5, individual replicates, SUP FIG 4C, read-out: % Cell Survival
  viability at 10 µM: 113%
[1]; IMR-90, Control cells, log (dose) [M] -6.66, individual replicates, SUP FIG 4C, read-out: % Cell Survival
  viability at 0.2188 µM: 91.6%
[1]; IMR-90, Control cells, log (dose) [M] -7.33, individual replicates, SUP FIG 4C, read-out: % Cell Survival
  viability at 0.04677 µM: 101%
[1]; IMR-90, Control, log (dose) [M] -5, read-out: % Cell Survival
  viability at 10 µM: 82.9%
[1]; IMR-90, Control, log (dose) [M] -5.33, read-out: % Cell Survival
  viability at 4.68 µM: 85.2%
[1]; IMR-90, Control, log (dose) [M] -5.66, read-out: % Cell Survival
  viability at 2.19 µM: 80.3%
[1]; IMR-90, Control, log (dose) [M] -6, read-out: % Cell Survival
  viability at 1 µM: 80.7%
[1]; IMR-90, Control, log (dose) [M] -6.66, read-out: % Cell Survival
  viability at 0.219 µM: 86%
[1]; IMR-90, Control, log (dose) [M] -7, read-out: % Cell Survival
  viability at 0.1 µM: 91.2%
[1]; IMR-90, Control, log (dose) [M] -7.33, read-out: % Cell Survival
  viability at 0.04677 µM: 89.7%
[1]; IMR-90, Control, log (dose) [M] -7.66, read-out: % Cell Survival
  viability at 0.0219 µM: 95.3%
[1]; IMR-90, Control, log (dose) [M] -8, read-out: % Cell Survival
  viability at 0.01 µM: 97.1%
[2]; log (dose) [M] -5
  viability at 10 µM: 114%
[2]; log (dose) [M] -5.33
  viability at 4.68 µM: 105%
[2]; log (dose) [M] -5.66
  viability at 2.19 µM: 120%
[2]; log (dose) [M] -6
  viability at 1 µM: 122%
[2]; log (dose) [M] -6.33
  viability at 0.468 µM: 122%
[2]; log (dose) [M] -6.66
  viability at 0.219 µM: 113%
[2]; log (dose) [M] -7
  viability at 0.1 µM: 112%
[2]; log (dose) [M] -7.33
  viability at 0.0468 µM: 115%
[2]; log (dose) [M] -7.66
  viability at 0.0219 µM: 91.3%
[2]; log (dose) [M] -8
  viability at 0.01 µM: 104%
[3]; IMR-90, 72 h, Senescent, log (dose) [M] -5, 72 h, mean n=3 (Fig 3C), read-out: Mean % Cell Survival
  viability at 10 µM: 97.8%
[3]; IMR-90, 72 h, Senescent, log (dose) [M] -5.33, 72 h, mean n=3 (Fig 3C), read-out: Mean % Cell Survival
  viability at 4.677 µM: 116%
[3]; IMR-90, 72 h, Senescent, log (dose) [M] -5.66, 72 h, mean n=3 (Fig 3C), read-out: Mean % Cell Survival
  viability at 2.188 µM: 102%
[3]; IMR-90, 72 h, Senescent, log (dose) [M] -6, 72 h, mean n=3 (Fig 3C), read-out: Mean % Cell Survival
  viability at 1 µM: 112%
[3]; IMR-90, 72 h, Senescent, log (dose) [M] -6.33, 72 h, mean n=3 (Fig 3C), read-out: Mean % Cell Survival
  viability at 0.4677 µM: 78.2%
[3]; IMR-90, 72 h, Senescent, log (dose) [M] -6.66, 72 h, mean n=3 (Fig 3C), read-out: Mean % Cell Survival
  viability at 0.2188 µM: 83.6%
[3]; IMR-90, 72 h, Senescent, log (dose) [M] -7, 72 h, mean n=3 (Fig 3C), read-out: Mean % Cell Survival
  viability at 0.1 µM: 88.6%
[3]; IMR-90, 72 h, Senescent, log (dose) [M] -7.33, 72 h, mean n=3 (Fig 3C), read-out: Mean % Cell Survival
  viability at 0.04677 µM: 91.5%
[3]; IMR-90, 72 h, Senescent, log (dose) [M] -7.66, 72 h, mean n=3 (Fig 3C), read-out: Mean % Cell Survival
  viability at 0.02188 µM: 108%
[3]; IMR-90, 72 h, Senescent, log (dose) [M] -8, 72 h, mean n=3 (Fig 3C), read-out: Mean % Cell Survival
  viability at 0.01 µM: 100%
[3]; IMR-90, Senescent cells, log (dose) [M] -5, individual replicates, SUP FIG 4C, read-out: % Cell Survival
  viability at 10 µM: 100%
[3]; IMR-90, Senescent cells, log (dose) [M] -5.66, individual replicates, SUP FIG 4C, read-out: % Cell Survival
  viability at 2.188 µM: 111%
[3]; IMR-90, Senescent cells, log (dose) [M] -6, individual replicates, SUP FIG 4C, read-out: % Cell Survival
  viability at 1 µM: 108%
[3]; IMR-90, Senescent cells, log (dose) [M] -6.66, individual replicates, SUP FIG 4C, read-out: % Cell Survival
  viability at 0.2188 µM: 90.3%
[3]; IMR-90, Senescent cells, log (dose) [M] -7, individual replicates, SUP FIG 4C, read-out: % Cell Survival
  viability at 0.1 µM: 89%
[3]; IMR-90, Senescent cells, log (dose) [M] -7.33, individual replicates, SUP FIG 4C, read-out: % Cell Survival
  viability at 0.04677 µM: 85.1%
[3]; IMR-90, Senescent cells, log (dose) [M] -7.66, individual replicates, SUP FIG 4C, read-out: % Cell Survival
  viability at 0.02188 µM: 103%
[3]; IMR-90, Senescent cells, log (dose) [M] -8, individual replicates, SUP FIG 4C, read-out: % Cell Survival
  viability at 0.01 µM: 94.1%

Reference: paper PMC10257182, “Discovery of senolytics using machine learning” (Nature Communications, 2023)
